Marks after values point to notes of the source that are not given here.
Key:
[1] = 10x dilution of soluble forms with standard IV solutions (pH, precipitate); type: physicochemical; conditions: for Solution 1 pH dil / Solution 1 ppt 24 hr: Cpd A salt solution diluted 10x with 0.9% NaCl; for Solution 1 ppt 24 hr / Solution 3 ppt 24 hr / Solution 2 ppt 24 hr / Solution 4 ppt 24 hr: precipitate at 24 hr; for Solution 2 pH dil / Solution 2 ppt 24 hr: Cpd A salt solution diluted 10x with 5% Dextrose; for Solution 3 pH dil / Solution 3 ppt 24 hr: Cpd A salt solution diluted 10x with 5% Dextrose + 0.9% NaCl; for Solution 4 pH dil / Solution 4 ppt 24 hr: Cpd A salt solution diluted 10x with Lactated Ringer's Solution; for pH of Solut.: undiluted Cpd A solution; for Concen. of Cpd A: undiluted solution used for the 10x dilutions
Experimental: (§1) The amount of Compound A or Compound B calculated for selected concentrations was weighed into volumetric flasks. Equimolar quantities of combining acid, amino acid, or base were added either as solutions or in dry form. Deionized water was added to bring the volume to that desired for the preselected concentrations.. All flasks were sonicated for 15 minutes, allowed to stand at room temperature for 30 minutes, then filtered through a fine frit sintered glass funnel. After the pH of the filtrate was taken, suitable dilutions were made into 0.1N HCl for ultraviolet spectrophotometric assay of concentration. Ten fold dilutions of the original filtrates were made into standard I.V. solutions.

[2] = Solubility screening procedure (concentration and pH of filtrate); type: physicochemical; conditions: for Conc. of CPD A: compound A + equimolar acid; for Conc. of CPD A / Conc. of CPD B: amino acid or base in deionized water, room temperature, filtrate, UV assay; for pH of Solution: pH of the filtrate; for Conc. of CPD B: compound B + equimolar acid
Experimental: as §1

| Structure (SMILES) | Conc. of CPD A [2] | pH of Solution ([2]; CPD A solutions) | Conc. of CPD B [2] | pH of Solution ([2]; CPD B solutions) | also measured |
| --- | --- | --- | --- | --- | --- |
| CCn1cc(C(=O)O)c(=O)c2cc(F)c(N3CCNCC3)cc21 [A Acetic] | 235000 µg/mL | 5.3 |  |  | Solution 1 pH dil [1]: 5.4; Solution 1 ppt 24 hr [1]: no; Solution 2 pH dil [1]: 5.0; Solution 3 pH dil [1]: 5.3; Solution 3 ppt 24 hr [1]: no; Solution 2 ppt 24 hr [1]: no; Solution 4 pH dil [1]: 5.3; Solution 4 ppt 24 hr [1]: no; pH of Solut. [1]: 5.3; Concen. of Cpd A [1]: 235000 µg/mL |
| CCn1cc(C(=O)O)c(=O)c2cc(F)c(N3CCNCC3)cc21 [A Choline] | 53500 µg/mL | 10.34 |  |  |  |
| CCn1cc(C(=O)O)c(=O)c2cc(F)c(N3CCNCC3)cc21 [A Citric] | 1500 µg/mL | 3.32 |  |  |  |
| CCn1cc(C(=O)O)c(=O)c2cc(F)c(N3CCNCC3)cc21 [A D,L-Alanine] | 900 µg/mL | 6.44 |  |  |  |
| CCn1cc(C(=O)O)c(=O)c2cc(F)c(N3CCNCC3)cc21 [A Diethanolamine] | 7500 µg/mL | 9.68 |  |  |  |
| CCn1cc(C(=O)O)c(=O)c2cc(F)c(N3CCNCC3)cc21 [A Galacturonic] | 166000 µg/mL | 5.44 |  |  |  |
| CCn1cc(C(=O)O)c(=O)c2cc(F)c(N3CCNCC3)cc21 [A Gluconic] | 182000 µg/mL | 4.3 |  |  |  |
| CCn1cc(C(=O)O)c(=O)c2cc(F)c(N3CCNCC3)cc21 [A Hydrochloric] | 201000 µg/mL | 1.52^a |  |  | Solution 1 pH dil [1]: 2.7; Solution 1 ppt 24 hr [1]: no; Solution 2 pH dil [1]: 2.8; Solution 3 pH dil [1]: 2.7; Solution 3 ppt 24 hr [1]: no; Solution 2 ppt 24 hr [1]: no; Solution 4 pH dil [1]: 4.6; Solution 4 ppt 24 hr [1]: no; pH of Solut. [1]: 1.52; Concen. of Cpd A [1]: 201000 µg/mL |
| CCn1cc(C(=O)O)c(=O)c2cc(F)c(N3CCNCC3)cc21 [A Isethionic] | 175000 µg/mL | 1.35 |  |  | Solution 1 pH dil [1]: 2.18; Solution 1 ppt 24 hr [1]: no; Solution 2 pH dil [1]: 2.27; Solution 3 pH dil [1]: 2.08; Solution 3 ppt 24 hr [1]: no; Solution 2 ppt 24 hr [1]: no; Solution 4 pH dil [1]: 3.70; Solution 4 ppt 24 hr [1]: no; pH of Solut. [1]: 1.35; Concen. of Cpd A [1]: 175000 µg/mL |
| CCn1cc(C(=O)O)c(=O)c2cc(F)c(N3CCNCC3)cc21 [A L-Arginine] | 11100 µg/mL | 9.8 |  |  |  |
| CCn1cc(C(=O)O)c(=O)c2cc(F)c(N3CCNCC3)cc21 [A L-Cysteic] | 166000 µg/mL | 2.92 |  |  | Solution 1 pH dil [1]: 3.17; Solution 1 ppt 24 hr [1]: no; Solution 2 pH dil [1]: 2.82; Solution 3 pH dil [1]: 2.68; Solution 3 ppt 24 hr [1]: no; Solution 2 ppt 24 hr [1]: no; Solution 4 pH dil [1]: 3.70; Solution 4 ppt 24 hr [1]: slight; pH of Solut. [1]: 2.92; Concen. of Cpd A [1]: 166000 µg/mL |
| CCn1cc(C(=O)O)c(=O)c2cc(F)c(N3CCNCC3)cc21 [A L-Histidine] | 700 µg/mL | 7.4 |  |  |  |
| CCn1cc(C(=O)O)c(=O)c2cc(F)c(N3CCNCC3)cc21 [A L-Leucine] | 900 µg/mL | 6.2 |  |  |  |
| CCn1cc(C(=O)O)c(=O)c2cc(F)c(N3CCNCC3)cc21 [A L-Lysine] | 4200 µg/mL | 9.5 |  |  |  |
| CCn1cc(C(=O)O)c(=O)c2cc(F)c(N3CCNCC3)cc21 [A L-Proline] | 900 µg/mL | 6.28 |  |  |  |
| CCn1cc(C(=O)O)c(=O)c2cc(F)c(N3CCNCC3)cc21 [A Lactobionic] | 46500 µg/mL | 4.65 |  |  |  |
| CCn1cc(C(=O)O)c(=O)c2cc(F)c(N3CCNCC3)cc21 [A Maleic] | 45100 µg/mL | 2.79 |  |  |  |
| CCn1cc(C(=O)O)c(=O)c2cc(F)c(N3CCNCC3)cc21 [A Methane Sulphonic] | 175000 µg/mL | 1.33 |  |  | Solution 1 pH dil [1]: 5.4; Solution 1 ppt 24 hr [1]: no; Solution 2 pH dil [1]: 2.7; Solution 3 pH dil [1]: 2.5; Solution 3 ppt 24 hr [1]: no; Solution 2 ppt 24 hr [1]: no; Solution 4 pH dil [1]: 4.5; Solution 4 ppt 24 hr [1]: no; pH of Solut. [1]: 1.5; Concen. of Cpd A [1]: 173000 µg/mL |

| Structure (SMILES) | Conc. of CPD A [2] | pH of Solution ([2]; CPD A solutions) | Conc. of CPD B [2] | pH of Solution ([2]; CPD B solutions) | also measured |
| --- | --- | --- | --- | --- | --- |
| CCn1cc(C(=O)O)c(=O)c2cc(F)c(N3CCNCC3)cc21 [A Oxalic] | 19800 µg/mL | 2.14 |  |  |  |
| CCn1cc(C(=O)O)c(=O)c2cc(F)c(N3CCNCC3)cc21 [A Sodium Hydroxide] | 131000 µg/mL | 10.0 |  |  |  |
| CCn1cc(C(=O)O)c(=O)c2cc(F)c(N3CCNCC3)cc21 [A Succinic] | 128000 µg/mL | 4.25 |  |  |  |
| CCn1cc(C(=O)O)c(=O)c2cc(F)c(N3CCNCC3)cc21 [A Tartaric] | 3500 µg/mL | 3.02 |  |  |  |
| CCn1cc(C(=O)O)c(=O)c2cc(F)c(N3CCNCC3)nc21 [B Choline] |  |  | 38200 µg/mL | 9.8 |  |
| CCn1cc(C(=O)O)c(=O)c2cc(F)c(N3CCNCC3)nc21 [B Citric] |  |  | 1300 µg/mL | 3.14 |  |
| CCn1cc(C(=O)O)c(=O)c2cc(F)c(N3CCNCC3)nc21 [B Diethanolamine] |  |  | 4300 µg/mL | 9.7 |  |
| CCn1cc(C(=O)O)c(=O)c2cc(F)c(N3CCNCC3)nc21 [B Gluconic] |  |  | 168000 µg/mL | 4.6 |  |
| CCn1cc(C(=O)O)c(=O)c2cc(F)c(N3CCNCC3)nc21 [B Glycine] |  |  | 1200 µg/mL | 6.87 |  |
| CCn1cc(C(=O)O)c(=O)c2cc(F)c(N3CCNCC3)nc21 [B L-Arginine] |  |  | 6700 µg/mL | 9.7 |  |
| CCn1cc(C(=O)O)c(=O)c2cc(F)c(N3CCNCC3)nc21 [B L-Histidine] |  |  | 1100 µg/mL | 7.53 |  |
| CCn1cc(C(=O)O)c(=O)c2cc(F)c(N3CCNCC3)nc21 [B L-Lysine] |  |  | 4300 µg/mL | 9.4 |  |
| CCn1cc(C(=O)O)c(=O)c2cc(F)c(N3CCNCC3)nc21 [B L-Proline] |  |  | 1100 µg/mL | 6.92 |  |
| CCn1cc(C(=O)O)c(=O)c2cc(F)c(N3CCNCC3)nc21 [B Lactobionic] |  |  | 99000 µg/mL | 3.6 ^b |  |
| CCn1cc(C(=O)O)c(=O)c2cc(F)c(N3CCNCC3)nc21 [B Maleic] |  |  | 7750 µg/mL | 2.60 |  |
| CCn1cc(C(=O)O)c(=O)c2cc(F)c(N3CCNCC3)nc21 [B Oxalic] |  |  | 2800 µg/mL | 1.76^b |  |
| CCn1cc(C(=O)O)c(=O)c2cc(F)c(N3CCNCC3)nc21 [B Succinic] |  |  | 75000 µg/mL | 4.45^b |  |
| CCn1cc(C(=O)O)c(=O)c2cc(F)c(N3CCNCC3)nc21 [B Tartaric] |  |  | 7700 µg/mL | 3.46 |  |

— patent EP0067666A1, “Salts of antimicrobial naphthyridine and quinoline compounds and their production” (priority 1981, dated 1982)
